Measured values reported in patent US8445674B2, “Heterocyclyl compounds” (Hoffmann-La Roche Inc, priority 2009, dated 2013).

These compounds were tested against T1, human chemokine receptor 2 isoform B (Homo sapiens, UniProt P41597) (assay: Calcium mobilization assay (FLIPR, antagonist activity against MCP-1)). Conditions: Ca mobilisation assay, CHOK1-CCR2B-A5 cells, inhibition of calcium increase induced by 20 nM MCP-1.
T1 construct: host or cells: CHOK1-CCR2B-A5 cells (CHO-K1)
T1 sequence (P41597 1-360 isoform P41597-2): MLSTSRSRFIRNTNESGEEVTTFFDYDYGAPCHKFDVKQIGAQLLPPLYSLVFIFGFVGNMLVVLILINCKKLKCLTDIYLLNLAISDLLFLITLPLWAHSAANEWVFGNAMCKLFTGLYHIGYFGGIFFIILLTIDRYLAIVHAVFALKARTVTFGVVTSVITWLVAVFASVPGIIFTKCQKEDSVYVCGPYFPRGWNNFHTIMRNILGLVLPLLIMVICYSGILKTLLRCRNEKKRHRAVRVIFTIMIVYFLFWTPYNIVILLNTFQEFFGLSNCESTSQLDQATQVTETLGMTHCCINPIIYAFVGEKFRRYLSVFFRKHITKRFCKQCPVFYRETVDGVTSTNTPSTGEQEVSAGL
Format: cell-based
Description: Calcium Mobilization Assay
CHOK1-CCR2B-A5 cells (from Euroscreen) stably overexpressing the human chemokine receptor 2 isoform B were cultured in Nutrient Hams F12 medium supplemented with 5% FBS, 100 U/ml penicillin, 100 μg/ml streptomycin, 400 μg/ml G418 and 5 μg/ml puromycin.
For the assay cells were grown overnight in 384-well black clear flat bottom polystyrene plates (Costar) at 37° C. at 5% CO2. After washing with DMEM, 20 mM Hepes, 2.5 mM probenecid, 0.1% BSA (DMEM assay buffer) cells were loaded with 4 μM Fluo-4 in the same DMEM assay buffer for 2 hours at 30° C. Excess dye was removed and cells were washed with DMEM assay buffer. 384-well compound plates were prepared with DMEM assay buffer/0.5% DMSO with or without various concentrations of test compounds. Usually compounds were tested for agonist and antagonist activity.
Test compounds were added to the assay plate and agonist activity was monitored as fluorescence for 80 seconds with a FLIPR (488 nm excitation; 510-570 nm emission; Molecular Devices). After 20-30 min. of incubation at 30° C., 20 nM MCP-1 (R&D; Roche) was added and fluorescence was monitored again for 80 seconds. Increases in intracellular calcium are reported as maximum fluorescence after agonist exposure minus basal fluorescence before exposure. Antagonist activity is indicated as inhibitor concentration required for 50% inhibition of specific calcium increases.

Row | Structure (SMILES) | IC50
1 | O=C(/C=C/c1ccc(Cl)c(Cl)c1)N1CCC(=O)N(CCC(=O)N2CCC(O)CC2)CC1 [Example 1, 1-[(E)-3-(3,4-Dichloro-phenyl)-acryloyl]-4-[3-(4-hydroxy-piperidin-1-yl)-3-oxo-propyl]-[1,4]diazepan-5-one] | 2660 nM
2 | COC(=O)C(CC(=O)N1CCC2(CC2)[C@H](O)C1)N1CCN(C(=O)/C=C/c2ccc(Cl)c(Cl)c2)CCC1=O (stereo partly drawn) [Example 7, (R,S)-2-{4-[(E)-3-(3,4-Dichloro-phenyl)-acryloyl]-7-oxo-[1,4]diazepan-1-yl}-4-((S)-4-hydroxy-6-aza-spiro[2.5]oct-6-yl)-4-oxo-butyric acid methyl ester] | 453 nM
3 | COC(=O)C(CC(=O)N1C[C@@H](C)C[C@H](O)C1)N1CCN(C(=O)/C=C/c2ccc(Cl)c(Cl)c2)CCC1=O (stereo partly drawn) [Example 9, (R,S)-2-{4-[(E)-3-(3,4-Dichloro-phenyl)-acryloyl]-7-oxo-[1,4]diazepan-1-yl}-4-((3S,5S)-3-hydroxy-5-methyl-piperidin-1-yl)-4-oxo-butyric acid methyl ester] | 2350 nM
4 | COC(=O)C(CC(=O)N1CCC2(CC2)[C@H](O)C1)N1CCN(C(=O)/C=C/c2cccc(Cl)c2)CCC1=O (stereo partly drawn) [Example 10] | 708 nM
5 | O=C(/C=C/c1cccc(Cl)c1)N1CCC(=O)N(C(CO)CC(=O)N2CCC3(CC3)[C@H](O)C2)CC1 (stereo partly drawn) [Example 11, 1-[(E)-3-(3-Chloro-phenyl)-acryloyl]-4-[(R,S)-3-((S)-4-hydroxy-6-aza-spiro[2.5]oct-6-yl)-1-hydroxymethyl-3-oxo-propyl]-[1,4]diazepan-5-one] | 464 nM
6 | COCC(CC(=O)N1CCC2(CC2)[C@H](O)C1)N1CCN(C(=O)/C=C/c2cccc(Cl)c2)CCC1=O (stereo partly drawn) [Example 13, 1-[(E)-3-(3-Chloro-phenyl)-acryloyl]-4-[(R,S)-3-((S)-4-hydroxy-6-aza-spiro[2.5]oct-6-yl)-1-methoxymethyl-3-oxo-propyl]-[1,4]diazepan-5-one] | 771 nM

Now from value to compound:

Row | IC50 | Structure (SMILES)
7 | 907 nM | CN(C)C(=O)[C@@H](CCO)N1CCN(C(=O)/C=C/c2cccc(Cl)c2)CCC1=O [Example 14, (R)-2-{4-[(E)-3-(3-Chloro-phenyl)-acryloyl]-7-oxo-[1,4]diazepan-1-yl}-4-hydroxy-N,N-dimethyl-butyramide]
8 | 237 nM | C[C@H]1C(=O)N(CCC(=O)N2CCC3(CC3)[C@H](O)C2)CCN1C(=O)Nc1ccc(Cl)c(Cl)c1 [Example 15, (S)-4-[3-((S)-4-Hydroxy-6-aza-spiro[2.5]oct-6-yl)-3-oxo-propyl]-2-methyl-3-oxo-piperazine-1-carboxylic acid (3,4-dichloro-phenyl)-amide]
9 | 4110 nM | C[C@H]1C(=O)N(CCC(=O)N2CCCCC2)CCN1C(=O)Nc1ccc(Cl)c(Cl)c1 [Example 16, (S)-2-Methyl-3-oxo-4-(3-oxo-3-piperidin-1-yl-propyl)-piperazine-1-carboxylic acid (3,4-dichloro-phenyl)-amide]
10 | 3170 nM | C[C@H]1C(=O)N(CCC(=O)N2CCCC(O)C2)CCN1C(=O)Nc1ccc(Cl)c(Cl)c1 (stereo partly drawn) [Example 17, (S)-4-[3-((R,S)-3-Hydroxy-piperidin-1-yl)-3-oxo-propyl]-2-methyl-3-oxo-piperazine-1-carboxylic acid (3,4-dichloro-phenyl)-amide]
11 | 1040 nM | C[C@H]1C(=O)N(CCC(=O)N2CCC(C)(O)CC2)CCN1C(=O)Nc1ccc(Cl)c(Cl)c1 [Example 18, (S)-4-[3-(4-Hydroxy-4-methyl-piperidin-1-yl)-3-oxo-propyl]-2-methyl-3-oxo-piperazine-1-carboxylic acid (3,4-dichloro-phenyl)-amide]
12 | 3830 nM | C[C@H]1C[C@H](O)CN(C(=O)CCN2CCN(C(=O)Nc3ccc(Cl)c(Cl)c3)[C@@H](C)C2=O)C1 [Example 19, (S)-4-[3-((3S,5S)-3-Hydroxy-5-methyl-piperidin-1-yl)-3-oxo-propyl]-2-methyl-3-oxo-piperazine-1-carboxylic acid (3,4-dichloro-phenyl)-amide]
